The assay has as its system P388 leukemia ip, CD2F1 mice, survival T/C. Description: NCI In Vivo Anticancer Drug Screen. Data for tumor model P388 Leukemia (intraperitoneal) in CD2F1 (CDF1) mice. The following applies: endpoint: median survival time, higher = longer survival. In a few lines: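 Mice carrying the transplanted tumor received test compound or vehicle. Survival was recorded in each group, and the value is the treated-group measurement divided by that of the vehicle-treated control group.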

The mark [1] stands for this setting: dose: 60.0 mg/kg/injection, schedule: Q01DX005 (ip), vehicle: saline.
Where [2] appears, read: dose: 120.0 mg/kg/injection, schedule: Q01DX005 (ip), vehicle: saline.
[3] abbreviates: dose: 50.0 mg/kg/injection, schedule: Q01DX009 (ip), vehicle: saline with Tween-80.
Where [4] appears, read: dose: 100.0 mg/kg/injection, schedule: Q01DX009 (ip), vehicle: saline with Tween-80.
Setting [5] is: dose: 200.0 mg/kg/injection, schedule: Q01DX009 (ip), vehicle: saline with Tween-80.
The mark [6] stands for this setting: dose: 25.0 mg/kg/injection, schedule: Q01DX009 (ip), vehicle: saline with Tween-80.

Several values for one entry are separate records, joined by “and”; a condition that tells them apart may be missing. Equal entries are not always repeated. Inconclusive results and toxic doses are left out.

On to `Cc1ccc(N=Nc2c(C)nn(C(=S)S)c2C)cc1`, for which the T/C by setting is: (dose: 100.0 mg/kg/injection, schedule: Q04DX002 (ip), vehicle: Klucel (hydroxypropylcellulose) (HPC)) 100 % of control; (dose: 200.0 mg/kg/injection, schedule: Q04DX002 (ip), vehicle: Klucel (hydroxypropylcellulose) (HPC)) 105 % of control.
With `CC(=O)ON=C(C1CC1)C1CC1`, the T/C was 100 % of control (dose: 37.5 mg/kg/injection, schedule: Q01DX009 (ip), vehicle: other); 106 % of control (dose: 75.0 mg/kg/injection, schedule: Q01DX009 (ip), vehicle: other); 100 % of control (dose: 150.0 mg/kg/injection, schedule: Q01DX009 (ip), vehicle: other); 110 % of control (dose: 300.0 mg/kg/injection, schedule: Q01DX009 (ip), vehicle: other).
Take `CC(C)C1(c2ccsc2)NC(=O)NC1=O` (configuration not stated): the T/C runs as follows: (dose: 50.0 mg/kg/injection, schedule: Q01DX009 (ip), vehicle: Klucel (hydroxypropylcellulose) (HPC)) 107 % of control; (dose: 100.0 mg/kg/injection, schedule: Q01DX009 (ip), vehicle: Klucel (hydroxypropylcellulose) (HPC)) 99 % of control; (dose: 200.0 mg/kg/injection, schedule: Q01DX009 (ip), vehicle: Klucel (hydroxypropylcellulose) (HPC)) 96 % of control.
Consider `CCCCCC1=CC2C(=O)NC(=O)NC12` (configuration not stated), for which the T/C reads like this: (dose: 12.5 mg/kg/injection, schedule: Q01DX005 (ip), vehicle: Klucel (hydroxypropylcellulose) (HPC)) 98 % of control; (dose: 25.0 mg/kg/injection, schedule: Q01DX005 (ip), vehicle: Klucel (hydroxypropylcellulose) (HPC)) 97 % of control; (dose: 50.0 mg/kg/injection, schedule: Q01DX005 (ip), vehicle: Klucel (hydroxypropylcellulose) (HPC)) 105 % of control; (dose: 100.0 mg/kg/injection, schedule: Q01DX005 (ip), vehicle: Klucel (hydroxypropylcellulose) (HPC)) 96 % of control.
With `CCCCNC(=S)N/N=C1/C=C2C=CC3C(CCC4(C)C(OC(C)=O)CCC34)C2(C)CC1` (configuration not stated), the T/C runs as follows: (dose: 100.0 mg/kg/injection, schedule: Q01DX001 (ip), vehicle: saline) 99 % of control; (dose: 200.0 mg/kg/injection, schedule: Q01DX001 (ip), vehicle: saline) 98 % of control; (dose: 400.0 mg/kg/injection, schedule: Q01DX001 (ip), vehicle: saline) 97 % of control.
Take `CCOC(=O)Nc1cc2c(c(N)n1)N=C(c1ccc(OC)cc1)CN2`: the T/C reads like this: (dose: 1.5 mg/kg/injection, schedule: Q01DX009 (ip), vehicle: Klucel (hydroxypropylcellulose) (HPC)) 105 % of control; (dose: 6.25 mg/kg/injection, schedule: Q01DX001 (ip), vehicle: Klucel (hydroxypropylcellulose) (HPC)) 110 % of control; (dose: 6.25 mg/kg/injection, schedule: Q04DX003 (ip), vehicle: Klucel (hydroxypropylcellulose) (HPC)) 110 % of control; (dose: 12.5 mg/kg/injection, schedule: Q04DX003 (ip), vehicle: Klucel (hydroxypropylcellulose) (HPC)) 158 % of control; (dose: 25.0 mg/kg/injection, schedule: Q01DX001 (ip), vehicle: Klucel (hydroxypropylcellulose) (HPC)) 150 % of control; (dose: 25.0 mg/kg/injection, schedule: Q04DX003 (ip), vehicle: Klucel (hydroxypropylcellulose) (HPC)) 163 % of control.
With `NC(CS)=NCC1C2CC3CC(C2)CC1C3` (configuration not stated), the T/C runs as follows: (dose: 0.78 mg/kg/injection, schedule: Q01DX009 (ip), vehicle: Klucel (hydroxypropylcellulose) (HPC)) 100 % of control; (dose: 1.56 mg/kg/injection, schedule: Q01DX009 (ip), vehicle: Klucel (hydroxypropylcellulose) (HPC)) 100 % of control; (dose: 3.12 mg/kg/injection, schedule: Q01DX009 (ip), vehicle: Klucel (hydroxypropylcellulose) (HPC)) 100 % of control and 91 % of control; (dose: 6.25 mg/kg/injection, schedule: Q01DX009 (ip), vehicle: Klucel (hydroxypropylcellulose) (HPC)) 104 % of control.
With `C=CCN(CC=C)c1ncnc2[nH]ncc12`, the T/C was 100 % of control (dose: 100.0 mg/kg/injection, schedule: Q04DX003 (ip), vehicle: saline with Tween-80); 100 % of control (dose: 200.0 mg/kg/injection, schedule: Q04DX003 (ip), vehicle: saline with Tween-80); 100 % of control (dose: 400.0 mg/kg/injection, schedule: Q04DX003 (ip), vehicle: saline with Tween-80).
As to `CC(=O)Nc1ccc(C(=O)N2C(=N)C(C#N)=C(O)/C2=C\c2ccc(Cl)c(Cl)c2)cc1`, the T/C under setting [1] is 100 % of control; the T/C under setting [2] is 100 % of control; the T/C (dose: 240.0 mg/kg/injection, schedule: Q01DX005 (ip), vehicle: saline) was 103 % of control.
With `C1CCC(CCCCc2nn[nH]n2)CC1`, the T/C reads like this: (dose: 50.0 mg/kg/injection, schedule: Q01DX005 (ip), vehicle: saline with Tween-80) 102 % of control; (dose: 100.0 mg/kg/injection, schedule: Q01DX005 (ip), vehicle: saline with Tween-80) 100 % of control.
Turning to `CCOC(=O)/C=C1\CCC(C)n2c1nccc2=O` (configuration not stated), the T/C is, setting by setting: (dose: 60.0 mg/kg/injection, schedule: Q01DX005 (ip), vehicle: saline with Tween-80) 97 % of control; (dose: 120.0 mg/kg/injection, schedule: Q01DX005 (ip), vehicle: saline with Tween-80) 101 % of control; (dose: 240.0 mg/kg/injection, schedule: Q01DX005 (ip), vehicle: saline with Tween-80) 98 % of control.
`Cn1cnc2cc(N3CCCCC3)c(N)cc2c1=O`: the T/C was 107 % of control (dose: 100.0 mg/kg/injection, schedule: Q04DX003 (ip), vehicle: Klucel (hydroxypropylcellulose) (HPC)); 99 % of control (dose: 200.0 mg/kg/injection, schedule: Q04DX003 (ip), vehicle: Klucel (hydroxypropylcellulose) (HPC)); 102 % of control (dose: 400.0 mg/kg/injection, schedule: Q04DX003 (ip), vehicle: Klucel (hydroxypropylcellulose) (HPC)).
For `CC1(C)C(=O)OC(n2cc(F)c(=O)[nH]c2=O)C1=O` (configuration not stated), the T/C reads like this: (dose: 11.25 mg/kg/injection, schedule: Q04DX002 (ip), vehicle: distilled water + Tween-80) 105 % of control; (dose: 22.5 mg/kg/injection, schedule: Q04DX002 (ip), vehicle: distilled water + Tween-80) 105 % of control; (dose: 45.0 mg/kg/injection, schedule: Q04DX002 (ip), vehicle: distilled water + Tween-80) 116 % of control; (dose: 45.0 mg/kg/injection, schedule: Q04DX002 (ip), vehicle: saline with Tween-80) 110 % of control; (dose: 90.0 mg/kg/injection, schedule: Q04DX002 (ip), vehicle: distilled water + Tween-80) 116 % of control; (dose: 360.0 mg/kg/injection, schedule: Q04DX002 (ip), vehicle: distilled water + Tween-80) 90 % of control. Further, the T/C (dose: 360.0 mg/kg/injection, schedule: Q04DX002 (ip), vehicle: saline with Tween-80) is 160 % of control.
For `CCCCCCOCN(COCCCCCC)c1ccc(Cl)cc1`, the T/C was 102 % of control under setting [3], 109 % of control under setting [4] and 118 % of control under setting [5].
For `CCO/C=N/NS(=O)(=O)c1ccc(C)cc1`, the T/C runs as follows: (dose: 6.25 mg/kg/injection, schedule: Q01DX009 (ip), vehicle: distilled water + Tween-80) 108 % of control; (dose: 12.5 mg/kg/injection, schedule: Q01DX009 (ip), vehicle: distilled water + Tween-80) 108 % of control; (dose: 12.5 mg/kg/injection, schedule: Q01DX009 (ip), vehicle: other) 104 % of control; (dose: 12.5 mg/kg/injection, schedule: Q01DX009 (ip), vehicle: saline with Tween-80) 105 % of control; under setting [6], 98 % of control; (dose: 50.0 mg/kg/injection, schedule: Q01DX009 (ip), vehicle: other) 104 % of control. Also, the T/C is 96 % of control under setting [3]; 98 % of control (dose: 100.0 mg/kg/injection, schedule: Q01DX009 (ip), vehicle: other); 92 % of control under setting [4]; 106 % of control (dose: 200.0 mg/kg/injection, schedule: Q01DX009 (ip), vehicle: other).
For the compound `C[N+]1(CCC(=O)c2ccccc2)CCCCC1`, the T/C reads like this: (dose: 12.5 mg/kg/injection, schedule: Q01DX009 (ip), vehicle: saline) 97 % of control; (dose: 25.0 mg/kg/injection, schedule: Q01DX009 (ip), vehicle: saline) 107 % of control.
For the compound `O=C(CCl)NC(Cc1ccc(O)cc1)C(=O)O` (configuration not stated), the T/C was 104 % of control under setting [6]; 99 % of control under setting [3]; 101 % of control and 105 % of control under setting [4]; 94 % of control under setting [5]; 114 % of control (dose: 400.0 mg/kg/injection, schedule: Q01DX009 (ip), vehicle: saline with Tween-80).
As to `CCNCc1nc2sc3c(c2c(=O)[nH]1)CCCC3`, the T/C runs as follows: under setting [3], 105 % of control; under setting [4], 94 % of control; under setting [5], 99 % of control.
Consider `CCc1c(-c2ccccc2)nc(N)nc1-c1nc(N)nc(-c2ccccc2)c1CC`, for which the T/C is 98 % of control under setting [1] and 100 % of control under setting [2].

For the origin of these results see PubChem BioAssay AID330 (DTP/NCI, 2004).
